The nature of the series: mn = molality of the nth substance listed, in mol/kg. The note with it: 100.8 kPa, Liquid, Pycnometric method.

Each structure is given as a SMILES string. Numbers after ± are expanded uncertainties.

Broadly, the mass density is the mass of a sample divided by its volume. Take `[NH4+].[O]=[V](=[O])[O-]` [ammonium vanadate] + O: the mass density is on record as 1002.1 ± 2 kg/m3 (313.15 K, m1 = 0.0946); 1001.1 ± 2.3 kg/m3 (343.15 K, m1 = 0.2563); 1001.3 ± 2.1 kg/m3 (343.15 K, m1 = 0.2612).

Values taken from the NIST ThermoML archive (doi:10.1021/acs.jced.5b00985).
